Measured values published in PMC4466200 (Bioorganic & Medicinal Chemistry Letters, 2015).

Key:
[1] = test system: MERS-CoV (strain EMC/2012)
[2] = test system: SARS-CoV (strain Frankfurt-1); assay type: cell-based
HIV-1 = conditions: CD4+ T cells; McGuigan's ProTide technology employed; cited from earlier work
SARS-CoV or MERS-CoV = conditions: cited from earlier work
HSV-2 = conditions: CD4+ T cells; McGuigan's ProTide technology employed; cited from earlier work
other viruses = conditions: needed to inhibit other viruses; cited from earlier work
coronavirus = coronavirus replication in vitro; cited from earlier work
in vitro = conditions: human

Nc1nc2c(ncn2COCCO)c(=O)[nH]1 [Acyclovir, acyclovir]
block of virus replication (in words) [1]: had no effect
block of virus replication (in words) [2]: had no effect
concentration suppressing replication (HIV-1): 3 to 12 µmol/L
activity against SARS-CoV or MERS-CoV in vitro (in words) (SARS-CoV or MERS-CoV): none of these well known antiviral drugs exhibited any activity
concentration suppressing replication (HSV-2): 3 to 12 µmol/L

NC(=O)c1ncn([C@@H]2O[C@H](CO)[C@@H](O)[C@H]2O)n1 [Ribavirin, ribavirin]
inhibitory concentration (other viruses): 50 to 100 µg/mL
inhibitory concentration (coronavirus): 500 to 5000 µg/mL

COc1nc(N)ncc1-c1cn(COCCO)cn1 [compound 2]
selectivity ratio (in vitro): > 3
block of virus replication (in words) [1]: can block the replication of MERS-CoV
EC50 [2]: No effect
block of virus replication (in words) [2]: but not SARS-CoV

Nc1nc(O)c2ncn(COC(CO)CO)c2n1 [ganciclovir]
activity against SARS-CoV or MERS-CoV in vitro (in words) (SARS-CoV or MERS-CoV): none of these well known antiviral drugs exhibited any activity

Nc1ccn([C@@H]2CS[C@H](CO)O2)c(=O)n1 [lamivudine]
activity against SARS-CoV or MERS-CoV in vitro (in words) (SARS-CoV or MERS-CoV): none of these well known antiviral drugs exhibited any activity

Cc1cn([C@H]2C[C@H](N=[N+]=[N-])[C@@H](CO)O2)c(=O)[nH]c1=O [zidovudine]
activity against SARS-CoV or MERS-CoV in vitro (in words) (SARS-CoV or MERS-CoV): none of these well known antiviral drugs exhibited any activity
